From US12156862B2, “Medicaments for the treatment of vasoconstriction related diseases or disorders” (Sulfateq B.V., priority 2017, dated 2024)

Assays:
[1] = biological target: T1, human α1 adrenoceptor subtype A (Homo sapiens, UniProt P35348); assay: Phenylephrine-induced intracellular calcium (FLIPR Calcium 6) in CHO cells, α1A; type: cell-based
T1 construct: expressed in transfected cells; host or cells: CHO-K1
T1 sequence (P35348 1-466): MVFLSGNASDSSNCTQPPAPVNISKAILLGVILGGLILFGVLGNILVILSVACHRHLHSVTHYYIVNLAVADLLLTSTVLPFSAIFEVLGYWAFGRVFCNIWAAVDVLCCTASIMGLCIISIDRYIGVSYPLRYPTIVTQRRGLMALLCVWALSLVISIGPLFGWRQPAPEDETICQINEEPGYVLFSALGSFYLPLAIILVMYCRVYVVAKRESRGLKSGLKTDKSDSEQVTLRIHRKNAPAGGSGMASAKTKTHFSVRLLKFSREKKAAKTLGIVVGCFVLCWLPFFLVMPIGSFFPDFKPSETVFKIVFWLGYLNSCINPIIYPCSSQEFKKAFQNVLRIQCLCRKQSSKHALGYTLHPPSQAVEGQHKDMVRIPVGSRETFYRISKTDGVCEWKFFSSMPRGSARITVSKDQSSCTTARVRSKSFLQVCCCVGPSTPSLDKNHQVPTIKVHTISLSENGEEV
Method: (§1) CHO-K1 cells were stably transfected with a plasmid containing human al-AR subtypes A, B and D in separate cell lines in DMEM-F12 medium with 10% FBS, 1% penicillin-streptomycin and 200 μg/mL Geneticin (G418, Invitrogen, Carlsbad, CA).
(§2) On the next day, CHO cells were treated with either vehicle (0.1% DMSO) or SUL-121 enantiomers for 30 min at 37° C. and stimulated with a 3-fold dilution series of PE (20 μM-100 pM). [Ca^2], was measured using the fluorescent FLIPR Calcium 6 assay kit (Molecular Devices) in immortalized CHO cells stably expressing the α1 adrenoceptor.
(§3) Initially, calcium responses induced by non-cumulative concentration series of phenylephrine were investigated using fluorescent measurements in α1A adrenoceptor-overexpressing CHO cells treated with SUL-150 and SUL-151 (FIG. 4). Fluorescent measurement data was processed and analyzed in SoftMax Pro 7 and expressed as % of baseline AUC with a 3-fold multiplier using an average of first 10 measurement points as baseline.

[2] = biological target: T2, human α1 adrenoceptor subtype D (Homo sapiens, UniProt P25100); assay: Phenylephrine-induced intracellular calcium (FLIPR Calcium 6) in CHO cells, α1D; type: cell-based; conditions: in words
T2 construct: expressed in transfected cells; host or cells: CHO-K1
T2 sequence (P25100 1-572): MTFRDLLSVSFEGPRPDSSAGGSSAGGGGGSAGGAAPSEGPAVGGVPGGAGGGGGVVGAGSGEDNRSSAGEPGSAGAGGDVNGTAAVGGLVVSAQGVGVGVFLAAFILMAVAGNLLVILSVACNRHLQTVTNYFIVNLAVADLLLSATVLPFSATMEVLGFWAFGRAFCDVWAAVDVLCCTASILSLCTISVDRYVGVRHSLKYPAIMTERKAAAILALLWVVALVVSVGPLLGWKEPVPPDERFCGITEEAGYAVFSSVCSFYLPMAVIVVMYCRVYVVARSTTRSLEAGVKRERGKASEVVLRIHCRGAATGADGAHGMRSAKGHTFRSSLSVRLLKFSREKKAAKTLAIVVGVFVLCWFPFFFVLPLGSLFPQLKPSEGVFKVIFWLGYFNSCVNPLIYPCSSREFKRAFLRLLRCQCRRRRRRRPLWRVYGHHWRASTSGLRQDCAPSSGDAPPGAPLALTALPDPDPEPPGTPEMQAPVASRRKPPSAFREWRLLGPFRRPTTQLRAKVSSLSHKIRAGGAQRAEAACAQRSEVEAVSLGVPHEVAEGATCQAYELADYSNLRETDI
Method: as §1, §2, §3

α1 adrenoceptor = assay: Phenylephrine-induced constriction of isolated porcine intrarenal arteries (myography)
Method: Porcine kidneys were obtained from a local slaughterhouse (Kroon Vlees, Gotenburgweg 30, 9723 TM Groningen. The Netherlands) and transported on ice in normal physiological Krebs buffer containing 120 mM NaCl, 6 mM KCl, 2.5 mM CaCl2×2H2O, 1.2 mM MgCl2×6H2O, 1.2 mM NaH2PO4×H2O, 25 mM NaHCO3 and 11.4 mM D-(+)-Glucose monohydrate (all ingredients were purchased from Merck) in ultrapure water.
The renal artery tree was dissected from the kidney, cleaned of surrounding connective tissue and cut into equally-sized ring segments (2 mm in length). In some rings, endothelium denudation was performed by gentle rubbing of the intimal surface with a paper clip. Rings were mounted in organ baths as described previously (Buikema et al., 2000). Arterial rings were washed thoroughly by replacing Krebs buffer and allowed to equilibrate for a period of 60 min under 1.4 g of resting tension before they were assessed for viability by inducing 2 subsequent constrictions with KCl (60 mM). […] After washout and stabilization, rings were treated for 30 minutes by incubation with vehicle (0.1% DMSO), SUL-121, SUL-150 or SUL-151, followed by subsequent incubation with cumulative doses of phenylephrine.
Dose-dependent constriction responses to phenylephrine (10^−8M-10^−4M) were recorded in said isolated porcine intrarenal arteries. Buffer was warmed to 37° C. and aerated with 95% O2 and 5% CO2 before use.
Vascular constriction responses are expressed as percentage of final response to KCl. Data are expressed as mean±SEM. *p<0.05.
To explore the effects of the enantiomers of (6-hydroxy-2,5,7,8-tetramethylchroman-2-yl)(piperazin-1-yl)methanone (SUL-150 and SUL-151) on constriction of isolated porcine intrarenal arteries, cumulative dose response curves to the α1 adrenoceptor agonist phenylephrine (PE) were constructed in the presence and absence of SUL-150 and SUL-151.

[3] = biological target: T3, human α1 adrenoceptor subtype B (Homo sapiens, UniProt P35368); assay: Phenylephrine-induced intracellular calcium (FLIPR Calcium 6) in CHO cells, α1B; type: cell-based; conditions: in words
T3 construct: expressed in transfected cells; host or cells: CHO-K1
T3 sequence (P35368 1-520): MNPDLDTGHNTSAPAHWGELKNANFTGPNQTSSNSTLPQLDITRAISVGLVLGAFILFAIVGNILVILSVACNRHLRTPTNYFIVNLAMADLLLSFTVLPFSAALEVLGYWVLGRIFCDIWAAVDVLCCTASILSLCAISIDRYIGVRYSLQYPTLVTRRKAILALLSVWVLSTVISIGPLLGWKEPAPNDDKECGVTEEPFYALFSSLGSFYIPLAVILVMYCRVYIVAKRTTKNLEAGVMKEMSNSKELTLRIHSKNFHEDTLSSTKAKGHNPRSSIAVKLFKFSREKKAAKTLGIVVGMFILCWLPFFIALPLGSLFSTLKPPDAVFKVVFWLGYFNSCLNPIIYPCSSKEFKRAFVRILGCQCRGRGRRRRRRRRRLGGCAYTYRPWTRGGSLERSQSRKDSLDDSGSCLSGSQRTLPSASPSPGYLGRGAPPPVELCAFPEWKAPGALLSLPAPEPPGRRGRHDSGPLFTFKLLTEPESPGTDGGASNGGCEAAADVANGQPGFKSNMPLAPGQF
Method: as §1, §2, §3

α1A adrenoceptor = biological target: T4, α1A adrenoceptor (Homo sapiens, UniProt P35348); assay: Radiolabeled prazosin displacement binding assay in α1A adrenoceptor transgenic CHO cells
T4 construct: expressed in transfected cells; host or cells: CHO-K1
T4 sequence (P35348 1-466): T1 sequence (P35348 1-466)
Description: We therefore explored whether SUL-150 could directly interact with the α1 adrenoceptor as a receptor antagonist.

Cc1c(C)c2c(c(C)c1O)CCC(C)(C(=O)N1CCNCC1)O2 (stereo not shown) [SUL-151, (6-hydroxy-2,5,7,8-tetramethylchroman-2-yl)(piperazin-1-yl)methanone]
logEC50 of phenylephrine-induced calcium influx, α1A ([1]; 10 μM test compound): −8.09 ± 0.10 | logEC50 of phenylephrine-induced calcium influx, α1A ([1]; 30 μM test compound): −8.09 ± 0.11 | logEC50 of phenylephrine-induced calcium influx, α1A ([1]; 100 μM test compound): −7.98 ± 0.10 | effect on PE-induced calcium transients, α1 adrenoceptor subtype A ([1]; in words): did not affect calcium transients | effect on PE-induced calcium transients, α1 adrenoceptor subtype D [2]: did not affect calcium transients | logEC50 of phenylephrine-induced constriction responses (α1 adrenoceptor; 10 μM test compound): −5.82 ± 0.05^ | logEC50 of phenylephrine-induced constriction responses (α1 adrenoceptor; 30 μM test compound): −5.89 ± 0.04 | logEC50 of phenylephrine-induced constriction responses (α1 adrenoceptor; 100 μM test compound): −5.77 ± 0.04^ | effect on PE-induced calcium transients, α1 adrenoceptor subtype B [3]: did not affect calcium transients | concentrations at which [7-Methoxy-3H]-prazosin is displaced (α1A adrenoceptor): higher than 10 μM
